According to US20200009135A1, “THERAPEUTIC APPLICATIONS OF MALT1 INHIBITORS” (MEDIVIR AB, priority 2017, published 2020):

Tests used:
[1] = system: CD4+FoxP3+CD25+ cell induction; assay: Development of human T-regulatory cells from naive CD4 T cells (FoxP3+CD25+ induction); format: cell-based; details: 3 donors, 0.4 μM, 0.4 μM and 4.0 μM
Method: Naïve CD4 T cell sorting and stimulation for regulatory T cell development A flat-bottom 48 well plate was coated with 250 μl of purified functional grade anti-human CD3 at 2 μg/ml in PBS. The plate was sealed and incubated at 37° C. for one hour. Peripheral blood mononuclear cells (PBMC) were isolated from human leucocyte reduction system cones by differential density centrifugation using Ficoll-PLUS (GE Healthcare). Cells were washed three times in RPMI+1% HI-FCS+1% penicillin/streptomycin (P/S) (1% RPMI), then resuspended at a concentration of 200×10^6/ml of 1% RPMI. An aliquot of cells was set aside for single colour controls, and the sample was stained at a dilution of 1:20 with anti-human CD4, anti-human CD45RA, anti-human CD25, and anti-human CD127 (antibodies from BioLegend and eBioscience) for 20 minutes on ice. Following the incubation, the stained PBMC were washed and resuspended at 50×10^6/ml in PBS+1% HI-FCS. Cells were sorted on a BD […] high speed cell sorter for the phenotype CD4+CD45RA+CD127+CD25-. Following the sort, cells were resuspended at 4×10^6/ml in pre-warmed cRPMI containing […] human IL-2 (final concentration 100 U/ml). […]
Staining Regulatory T Cell Cultures Induced regulatory T cell cultures were washed and counted. […]
CD4+ naïve T cells cultured for 10 days were analysed for their expression of FoxP3 and CD25. […]

[2] = system: Treg suppression of CD4+CD25- effector T cell proliferation; assay: Treg suppressive activity (suppression of CD4+CD25- effector T cell proliferation); format: cell-based, human
Method: PBMC were isolated from fresh blood by differential density centrifugation using Ficoll-PLUS (GE Healthcare). Cells were washed three times in RPMI+1% heat-inactivated foetal calf serum (HI-FCS)+1% penicillin/streptomycin (P/S) (1% RPMI), then resuspended in PBS+2% heat inactivated foetal calf serum (HI-FCS)+2.0 mM EDTA (isolation buffer). CD4+CD25- and CD4+CD25+ T cells were isolated, per the manufacturer's instructions (Miltenyi CD4+CD25+ Regulatory T cell Isolation Kit, human). Isolated CD4+CD25− T cells were then labeled with Cell Proliferation Dye eFluor® 450 per manufacturer's instructions (eBioscience). An aliquot of cells was stained with anti-CD3 and anti-CD4 (BioLegend and eBioscience) to assess cell purity and dye labeling by flow cytometry. Cultures were plated in cRPMI, with […] CD4+CD25− cells per well. […]
FIG. 2. The proliferation of CD4+CD25− T cells, purified from a different donor and labelled with Cell Proliferation Dye eFluor® 450, was assessed following a 4 day activation with anti-CD3/CD28 beads. There was a robust proliferation of the cells, and they were readily distinguished from unlabeled cultured cells (generated in the 10 day culture period).
The number of proliferating CD4+CD25− “effector” T cells was determined at each ratio (1:4, 1:2, 1:1) of these cells to the cultured cells generated in the previous 10 day culture period (cultured “Treg”). […]

[3] = Follow-up 5 day cell growth assay WSU-NHL (CC50); format: cell-based; details: human, WSU-NHL cells

## CO[C@@H](C)c1c(NC(=O)Nc2cnc(-n3nccn3)c(Cl)c2)cnc2cc(Cl)nn12 [Example 2, (S)-1-(5-chloro-6-(2H-1,2,3-triazol-2-yl)pyridin-3-yl)-3-(2-chloro-7-(1-methoxyethyl)pyrazolo[1,5-a]pyrimidin-6-yl)urea]
[1]; highest degree of inhibition with 4.0 μM
  generation of a Treg phenotype and function: inhibit
[1]; IL-2+TGFβ, 10 days, highest concentration most effective
  CD4+FoxP3+CD25+ cell induction: robust inhibition
[2]; donor 1, 0.4 μM, 0.4 μM and 4.0 μM
  Treg suppression of effector cell proliferation, donor 1: reduced
[2]; donors 2 and 3, increasing concentrations
  Treg suppression of proliferation of responding effector T cells, donors 2 and 3: reduced by increasing concentrations
[3]
  CC50 at 5 days: 77 µM
